Assay [1] deals with Gastrin/cholecystokinin type B receptor (Cavia porcellus). The assay is described as follows: Binding activity towards cholecystokinin-B (CCK-B) receptor in guinea pig cortex.
For assay [2] the target is unchanged. The description is as above. The source holds these as a separate data set.

The source of these data is BindingDB's records for doi:10.1016/0960-894X(95)00327-P (1995).

The IC50 is the concentration that gives 50% inhibition. A low value points to greater potency in that assay.

In assay [1], `Cc1ccc2c(c1)N(CC(=O)NC(C)(C)C)C(=O)[C@H](NC(=O)Nc1cccc(-c3nnn[nH]3)c1)C[C@@H]2Cc1ccccc1` [2-((3R,5S)-5-Benzyl-8-methyl-2-oxo-3-{3-[3-(1H-tetrazol-5-yl)-phenyl]-ureido}-2,3,4,5-tetrahydro-benzo[b]azepin-1-yl)-N-tert-butyl-acetamide] yielded a half-maximal inhibitory concentration (IC50) of 1.7 nM.
Molecule `Cc1ccc2c(c1)N(CC(=O)NC(C)(C)C)C(=O)[C@H](NC(=O)Nc1cccc(C(=O)NS(=O)(=O)c3ccccc3)c1)C[C@@H]2c1ccccc1` [2-{(3R,5R)-3-[3-(3-Benzenesulfonylaminocarbonyl-phenyl)-ureido]-8-methyl-2-oxo-5-phenyl-2,3,4,5-tetrahydro-benzo[b]azepin-1-yl}-N-tert-butyl-acetamide] gave an IC50 in assay [1] of 4.8 nM.
On the same count and under the same terms, the value for `COC(=O)c1cccc(NC(=O)N[C@@H]2C[C@H](C3CCCCC3)c3ccc(C)cc3N(CC(=O)NC(C)(C)C)C2=O)c1` [3-{3-[(3R,5R)-1-(tert-Butylcarbamoyl-methyl)-5-cyclohexyl-8-methyl-2-oxo-2,3,4,5-tetrahydro-1H-benzo[b]azepin-3-yl]-ureido}-benzoic acid methyl ester] was 0.6 nM.
In assay [2], `Cc1ccc2c(c1)N(CC(=O)NC(C)(C)C)C(=O)[C@H](NC(=O)Nc1cccc(C(=O)O)c1)C[C@@H]2C1CCCCC1` [3-{3-[(3R,5R)-1-(tert-Butylcarbamoyl-methyl)-5-cyclohexyl-8-methyl-2-oxo-2,3,4,5-tetrahydro-1H-benzo[b]azepin-3-yl]-ureido}-benzoic acid] gave an IC50 of 0.1 nM.
Consider `COC(=O)c1cccc(NC(=O)N[C@@H]2C[C@H](c3ccccc3)c3ccc(C)cc3N(CC(=O)NC(C)(C)C)C2=O)c1` [3-{3-[(3R,5R)-1-(tert-Butylcarbamoyl-methyl)-8-methyl-2-oxo-5-phenyl-2,3,4,5-tetrahydro-1H-benzo[b]azepin-3-yl]-ureido}-benzoic acid methyl ester], for which the IC50 in assay [1] is 1.4 nM.
On the same count and under the same terms, then `Cc1ccc2c(c1)N(CC(=O)NC(C)(C)C)C(=O)[C@H](NC(=O)Nc1cccc(C(=O)O)c1)C[C@@H]2c1ccccc1` [3-{3-[(3R,5R)-1-(tert-Butylcarbamoyl-methyl)-8-methyl-2-oxo-5-phenyl-2,3,4,5-tetrahydro-1H-benzo[b]azepin-3-yl]-ureido}-benzoic acid], with 2.7 nM; and `Cc1ccc2c(c1)N(CC(=O)NC(C)(C)C)C(=O)[C@H](NC(=O)Nc1cccc(-c3nnn[nH]3)c1)C[C@@H]2C1CCCCC1` [N-tert-Butyl-2-((3R,5R)-5-cyclohexyl-8-methyl-2-oxo-3-{3-[3-(1H-tetrazol-5-yl)-phenyl]-ureido}-2,3,4,5-tetrahydro-benzo[b]azepin-1-yl)-acetamide], with 0.22 nM.
Molecule `Cc1ccc2c(c1)N(CC(=O)NC(C)(C)C)C(=O)[C@H](NC(=O)Nc1cccc(-c3nnn[nH]3)c1)C[C@@H]2C(C)C` [N-tert-Butyl-2-((3R,5R)-5-isopropyl-8-methyl-2-oxo-3-{3-[3-(1H-tetrazol-5-yl)-phenyl]-ureido}-2,3,4,5-tetrahydro-benzo[b]azepin-1-yl)-acetamide] registered an IC50 in assay [1] of 0.98 nM.
On the same count and under the same terms, the value for `Cc1ccc2c(c1)N(CC(=O)NC(C)(C)C)C(=O)[C@H](NC(=O)Nc1cccc(-c3nnn[nH]3)c1)C[C@@H]2c1ccccc1` [N-tert-Butyl-2-((3R,5R)-8-methyl-2-oxo-5-phenyl-3-{3-[3-(1H-tetrazol-5-yl)-phenyl]-ureido}-2,3,4,5-tetrahydro-benzo[b]azepin-1-yl)-acetamide] was 0.81 nM; that for `Cc1ccc2c(c1)N(CC(=O)NC(C)(C)C)C(=O)[C@H](NC(=O)Nc1cccc(C(=O)NS(=O)(=O)c3ccccc3C)c1)C[C@@H]2c1ccccc1` [N-tert-Butyl-2-((3R,5R)-8-methyl-2-oxo-5-phenyl-3-{3-[3-(toluene-2-sulfonylaminocarbonyl)-phenyl]-ureido}-2,3,4,5-tetrahydro-benzo[b]azepin-1-yl)-acetamide] was 7.9 nM.
On the same count and under the same terms, then `CCS(=O)(=O)NC(=O)c1cccc(NC(=O)N[C@@H]2C[C@H](c3ccccc3)c3ccc(C)cc3N(CC(=O)NC(C)(C)C)C2=O)c1` [N-tert-Butyl-2-{(3R,5R)-3-[3-(3-ethanesulfonylaminocarbonyl-phenyl)-ureido]-8-methyl-2-oxo-5-phenyl-2,3,4,5-tetrahydro-benzo[b]azepin-1-yl}-acetamide], with 1 nM.
In assay [1], `Cc1ccc2c(c1)N(CC(=O)NC(C)(C)C)C(=O)[C@H](NC(=O)Nc1cccc(C(=O)NS(C)(=O)=O)c1)C[C@@H]2c1ccccc1` [N-tert-Butyl-2-{(3R,5R)-3-[3-(3-methanesulfonylaminocarbonyl-phenyl)-ureido]-8-methyl-2-oxo-5-phenyl-2,3,4,5-tetrahydro-benzo[b]azepin-1-yl}-acetamide] gave an IC50 of 0.88 nM.
Same read-out and setting: the value for `Cc1ccc2c(c1)N(CC(=O)NC(C)(C)C)C(=O)[C@H](NC(=O)Nc1cccc(C(=O)NS(C)(=O)=O)c1)C[C@@H]2C1CCCCC1` [N-tert-Butyl-2-{(3R,5R)-5-cyclohexyl-3-[3-(3-methanesulfonylaminocarbonyl-phenyl)-ureido]-8-methyl-2-oxo-2,3,4,5-tetrahydro-benzo[b]azepin-1-yl}-acetamide] was 0.26 nM; that for `Cc1ccc2c(c1)N(CC(=O)NC(C)(C)C)C(=O)[C@H](NC(=O)Nc1cccc(C(=O)NS(=O)(=O)Cc3ccccc3)c1)C[C@@H]2c1ccccc1` [N-tert-Butyl-2-{(3R,5R)-8-methyl-2-oxo-5-phenyl-3-[3-(3-phenylmethanesulfonylaminocarbonyl-phenyl)-ureido]-2,3,4,5-tetrahydro-benzo[b]azepin-1-yl}-acetamide] was 4.2 nM; that for `Cc1ccc2c(c1)N(CC(=O)NC(C)(C)C)C(=O)[C@H](NC(=O)Nc1cccc(C(=O)NS(=O)(=O)C(F)(F)F)c1)C[C@@H]2c1ccccc1` [N-tert-Butyl-2-{(3R,5R)-8-methyl-2-oxo-5-phenyl-3-[3-(3-trifluoromethanesulfonylaminocarbonyl-phenyl)-ureido]-2,3,4,5-tetrahydro-benzo[b]azepin-1-yl}-acetamide] was 5.1 nM.
